# Laboratory results: publication PMC4744035, “In Vivo, In Vitro, and In Silico Characterization of Peptoids as Antimicrobial Agents” (PLoS ONE, 2016)
# Ends that are not written are not given here.
# Key:
# B. subtilis ATCC 6633 = type: cell-based
# Summary of the method: (§1)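 MICs determined by 2:1 serial broth microdilution in cation-adjusted Mueller-Hinton broth per CLSI M7-A6, using inoculum at 1 x 10^6 CFU/mL mixed 1:1 with peptoid solution. Three independent replicates, each with two parallel trials.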
# E. coli ATCC 35218 = type: cell-based
# Summary of the method: as §1
# erythrocytes = test: Hemolytic activity (HD10/HD50); type: cell-based
# Excerpt: Table 1 Characteristics of antimicrobial peptoids, screened for activity against B. subtilis and E. coli bacterial strains. | column: HD10 / HD50
# NIH 3T3 cells = test: Metabolic activity, MTS assay; type: cell-based, mouse; conditions: NIH 3T3 cells, MTS assay, 3 hours
# Summary of the method: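 Mouse NIH 3T3 fibroblast monolayers, about 5000 cells per well, washed and exposed to serially diluted peptoids in Hank's balanced salt solution. Metabolic activity read by MTS; average of six replicate trials.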
# [1] = tested on: E. cloacae 218R Class C β-lactamase; test: microbe, parasite or virus in culture
# Summary of the method: (§2)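 Clinical and lab strains were tested by modified broth microdilution in Mueller Hinton medium at 2–7 x 10^5 CFU/mL.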
# E. coli 63103 (ESBL) = test: microbe, parasite or virus in culture
# Summary of the method: as §2
# E. coli 64771 (ESBL) = test: microbe, parasite or virus in culture
# Summary of the method: as §2
# E. faecalis ATCC29212 = test: microbe, parasite or virus in culture; conditions: E. faecalis ATCC29212
# Summary of the method: as §2
# E. faecalis F43559 (VRE) = test: microbe, parasite or virus in culture; conditions: E. faecalis F43559 (VRE)
# Summary of the method: as §2
# E. faecalis W61950 (VRE) = test: microbe, parasite or virus in culture; conditions: E. faecalis W61950 (VRE)
# Summary of the method: as §2
# E. faecium T62764 (VRE) = test: microbe, parasite or virus in culture; conditions: E. faecium T62764 (VRE)
# Summary of the method: as §2
# E. faecium mic80 (VRE) = test: microbe, parasite or virus in culture
# Summary of the method: as §2
# [2] = tested on: K. pneumonia 61962 (ESBL); test: microbe, parasite or virus in culture; conditions: K. pneumonia 61962 (ESBL)
# Summary of the method: as §2
# [3] = tested on: K. pneumonia 63575 (ESBL); test: microbe, parasite or virus in culture; conditions: K. pneumonia 63575 (ESBL)
# Summary of the method: as §2
# P. aeruginosa 198 (MDR) = test: microbe, parasite or virus in culture; conditions: P. aeruginosa 198 (MDR)
# Summary of the method: as §2
# P. aeruginosa 213 (MDR) = test: microbe, parasite or virus in culture
# Summary of the method: as §2
# P. aeruginosa 9 (MDR) = test: microbe, parasite or virus in culture; conditions: P. aeruginosa 9 (MDR)
# Summary of the method: as §2
# [4] = tested on: P. aeruginosa H1027 (MDR); test: microbe, parasite or virus in culture
# Summary of the method: as §2
# [5] = tested on: P. aeruginosa H103 (wild type); test: microbe, parasite or virus in culture
# Summary of the method: as §2
# [6] = tested on: P. aeruginosa H1030 (MDR); test: microbe, parasite or virus in culture; conditions: P. aeruginosa H1030 (MDR)
# Summary of the method: as §2
# [7] = tested on: P. aeruginosa LES400 (MDR); test: microbe, parasite or virus in culture; conditions: P. aeruginosa LES400 (MDR)
# Summary of the method: as §2
# P. maltophilia ATCC13637 = test: microbe, parasite or virus in culture
# Summary of the method: as §2
# S. aureus ATCC25923 = test: microbe, parasite or virus in culture
# Summary of the method: as §2
# S. aureus C623 (MRSA) = test: microbe, parasite or virus in culture
# Summary of the method: as §2
# LPS (P. aeruginosa) = test: Dansyl polymyxin B (DPX) displacement assay, LPS binding; conditions: DPX bound to P. aeruginosa LPS; for IC50: read-out: I50 (concentration that displaces 50% of LPS-bound DPX)
# Method: The Dansyl polymyxin B (DPX) displacement assay was carried out as described earlier. In brief, the fluorescence of DPX (Invitrogen) bound to LPS (P. aeruginosa) was measured by using a Luminescence spectrometer LS 50B (Perkin Elmer) with excitation and emission-wavelengths of 340 nm and 485 nm, respectively. A predetermined amount of DPX, resulting in 90% saturation of LPS, was added to 1 mL of 3 μg/mL of purified LPS. Small aliquots (5 μL of 1 μg/mL) of test compounds were added under constant stirring in the cuvette, and the displacement of DPX was measured for 30–60 seconds as a decrease in fluorescence. The process was repeated until maximum displacement was reached.
# The ability of other cationic molecules to displace DPX molecules bound to LPS (monitored by reduction in fluorescence) assesses their relative ability to bind to LPS [33, 34]. While the highly cationic MSI-78 (+10 charge) displaced 100% of bound DPX (equivalent to that of polymyxin B), peptoid 1 and MX-226 displaced 71% and 73% of bound DPX, respectively. […] A second parameter characterizing the LPS/polycation interaction is the I50, which is defined as the concentration of a polycation that displaces 50% of LPS-bound DPX. The I50 is inversely related to the relative affinity of each molecule for binding sites on LPS.
# [8] = tested on: 20 bacterial strains (13 Gram-negative, 7 Gram-positive); conditions: out of the 20 pathogens tested
# Method: The MICs of test agents were measured using a modified broth micro-dilution method in Difco Mueller Hinton medium, on a panel of bacterial pathogens that were both susceptible and resistant to common antibiotics (S1 File). Briefly, serial dilutions were performed in 0.01% acetic acid containing 0.2% bovine serum albumin at 10-fold the desired final concentration. Ten μL of the 10-fold concentrated test reagents were added to each well of a 96-well polypropylene microtitre plate containing 90 μL of Mueller Hinton media per well. Bacteria were added to the plate from an overnight culture at a final concentration of 2–7 x 10^5 CFU/mL and incubated overnight at 37°C. The MIC is defined as the concentration at which no growth was observed.
# Screening of peptoid antimicrobial activity against a panel of multidrug resistant superbugs was done according to the protocol described in the manuscript. The bacterial strains used in this panel included; P. aeruginosa PAO1 strain H103 [1], P. maltophilia ATCC#13637, S. aureus ATCC#25923 [1], E. faecalis ATCC#29212 [2], and E. cloacae 218R, constitutively expressing Class C chromosomal β-lactamase, were from the Hancock lab strains collection. An MRSA clinical isolate was kindly provided by Anthony Chow (Vancouver General Hospital, Vancouver, Canada). Two Klebsiella pneumoniae and two E. coli clinical isolates expressing extended spectrum β-lactamases (ESBL) were kindly provided by George Zhanel (Health Sciences Centre, Winnipeg, Canada). Vancomycin-resistant clinical isolates of Enterococcus faecalis and E. faecium were obtained from Ana M. Paccagnella (BC Centre for Disease Control, Vancouver, Canada). Three clinical isolates (#9, #198 and #213) of multi-drug resistant P. aeruginosa, were kindly provided by Carlos Kiffer (University of São Paulo, Brazil). […] Three P. aeruginosa clinical isolates of the Liverpool epidemic strain (LES) (H1027, H1030 and LES400) were all kindly provided by Craig Winstanley (University of Liverpool, UK). […] All tested bacterial strains were categorized as biohazard level 2 pathogens.
# [9] = tested on: MDR P. aeruginosa (polymyxin B resistant isolate); set-up: method as in PMID 19635950; conditions: MDR P. aeruginosa isolate most resistant to peptoid 1; cited from earlier work
substance,measurement,setting,value
H-(NLys-Npm-Npm)4-NH2 [Peptoid 1ach],MIC B. subtilis,B. subtilis ATCC 6633,1.6 µM
same,MIC E. coli,E. coli ATCC 35218,12.5 µM
same,HD10 (hemolytic activity),erythrocytes,183
same,HD50 (hemolytic activity),erythrocytes,> 200
same,"ID50 (inhibitory dose, metabolic activity)",NIH 3T3 cells,16 µM
same,MIC,[1]; E. cloacae 218R Class C β-lactamase,16 µg/mL
same,MIC,E. coli 63103 (ESBL); E. coli 63103 (ESBL),16 µg/mL
same,MIC,E. coli 64771 (ESBL); E. coli 64771 (ESBL),8 µg/mL
same,MIC,E. faecalis ATCC29212,8 µg/mL
same,MIC,E. faecalis F43559 (VRE),32 µg/mL
same,MIC,E. faecalis W61950 (VRE),32 µg/mL
same,MIC,E. faecium T62764 (VRE),2 µg/mL
same,MIC,E. faecium mic80 (VRE); E. faecium mic80 (VRE),4 µg/mL
same,MIC,[2],128 µg/mL
same,MIC,[3],64 µg/mL
same,MIC,P. aeruginosa 198 (MDR),8 µg/mL
same,MIC,P. aeruginosa 213 (MDR); P. aeruginosa 213 (MDR),8 µg/mL
same,MIC,P. aeruginosa 9 (MDR),64 µg/mL
same,MIC,[4]; P. aeruginosa H1027 (MDR),2 µg/mL
same,MIC,[5]; P. aeruginosa H103 (wild type),4 µg/mL
same,MIC,[6],64 µg/mL
same,MIC,[7],4 µg/mL
same,MIC,P. maltophilia ATCC13637; P. maltophilia ATCC13637,4 µg/mL
same,MIC,S. aureus ATCC25923; S. aureus ATCC25923,4 µg/mL
same,MIC,S. aureus C623 (MRSA); S. aureus C623 (MRSA),4 µg/mL
"ILRWPWWPWRRK-NH2 (C-terminus assumed) [MX-226, Omiganan, reference compound]",MIC,[1]; 218R Class C β-lactamase,16 µg/mL
same,MIC,E. coli 63103 (ESBL); 63103 (ESBL),64 µg/mL
same,MIC,E. coli 64771 (ESBL); 64771 (ESBL),64 µg/mL
same,MIC,E. faecium mic80 (VRE); mic80 (VRE),64 µg/mL
same,MIC,P. aeruginosa 213 (MDR); 213 (MDR),64 µg/mL
same,MIC,[4]; H1027 (MDR),64 µg/mL
same,MIC,[5]; H103 (wild type),32 µg/mL
same,MIC,P. maltophilia ATCC13637; ATCC13637,32 µg/mL
same,MIC,S. aureus ATCC25923; ATCC25923,16 µg/mL
same,MIC,S. aureus C623 (MRSA); C623,32 µg/mL
same,bound DPX displaced (maximum displacement),LPS (P. aeruginosa),73%
same,IC50,LPS (P. aeruginosa),5 µM
same,number of pathogens with MIC ≤ 8 μg/mL,[8],none
polymyxin B,bound DPX displaced (maximum displacement),LPS (P. aeruginosa),100%
same,IC50,LPS (P. aeruginosa),3.2 µM
same,MIC,[9],64 µg/mL
